Source: PubChem BioAssay (NCI)
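Interpolation was linear, between the two tested concentrations surrounding the appropriate level; five concentrations were tested over 48 hours in 96-well plates. TGI: total growth inhibition.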

What was measured:
Experiment in all cases: inhibition of tumour cell growth, NCI panel, 48 h
M14 melanoma = tested on: M14 melanoma
KM20L2 colon = tested on: KM20L2 colon
HOP-18 NSCLC = tested on: HOP-18 NSCLC
SNB-78 CNS = tested on: SNB-78 CNS
DMS 273 small cell lung = tested on: DMS 273 small cell lung
NCI-H226 lung = tested on: NCI-H226 lung
OVCAR-8 ovarian = tested on: OVCAR-8 ovarian
HOP-62 NSCLC = tested on: HOP-62 NSCLC
NCI-H522 lung = tested on: NCI-H522 lung
COLO 205 colon = tested on: COLO 205 colon
OVCAR-4 ovarian = tested on: OVCAR-4 ovarian
TK-10 renal = tested on: TK-10 renal
DLD-1 colon = tested on: DLD-1 colon
LXFL 529 NSCLC = tested on: LXFL 529 NSCLC
DMS 114 small cell lung = tested on: DMS 114 small cell lung
A498 renal = tested on: A498 renal
M19-MEL melanoma = tested on: M19-MEL melanoma
HOP-92 NSCLC = tested on: HOP-92 NSCLC
HL-60(TB) leukemia = tested on: HL-60(TB) leukemia
IGROV1 ovarian = tested on: IGROV1 ovarian
MOLT-4 leukemia = tested on: MOLT-4 leukemia
CCRF-CEM leukemia = tested on: CCRF-CEM leukemia
UACC-62 melanoma = tested on: UACC-62 melanoma
SW-620 colon = tested on: SW-620 colon
HCT-15 colon = tested on: HCT-15 colon
SK-MEL-2 melanoma = tested on: SK-MEL-2 melanoma
OVCAR-3 ovarian = tested on: OVCAR-3 ovarian
OVCAR-5 ovarian = tested on: OVCAR-5 ovarian
K-562 leukemia = tested on: K-562 leukemia
HCT-116 colon = tested on: HCT-116 colon
A549 NSCLC = tested on: A549 NSCLC
SF-539 CNS = tested on: SF-539 CNS
MALME-3M melanoma = tested on: MALME-3M melanoma
U251 CNS = tested on: U251 CNS
786-0 renal = tested on: 786-0 renal
SN12C renal = tested on: SN12C renal
RPMI-8226 leukemia = tested on: RPMI-8226 leukemia
ACHN renal = tested on: ACHN renal
SR leukemia = tested on: SR leukemia
RXF 393 renal = tested on: RXF 393 renal
SF-268 CNS = tested on: SF-268 CNS
KM12 colon = tested on: KM12 colon
NCI-H23 lung = tested on: NCI-H23 lung
SK-MEL-5 melanoma = tested on: SK-MEL-5 melanoma
UACC-257 melanoma = tested on: UACC-257 melanoma
SNB-75 CNS = tested on: SNB-75 CNS
LOX IMVI melanoma = tested on: LOX IMVI melanoma
SF-295 CNS = tested on: SF-295 CNS
CAKI-1 renal = tested on: CAKI-1 renal
UO-31 renal = tested on: UO-31 renal
HT29 colon = tested on: HT29 colon
SK-MEL-28 melanoma = tested on: SK-MEL-28 melanoma
NCI-H460 lung = tested on: NCI-H460 lung
SK-OV-3 ovarian = tested on: SK-OV-3 ovarian
HCC-2998 colon = tested on: HCC-2998 colon
EKVX NSCLC = tested on: EKVX NSCLC
XF 498 CNS = tested on: XF 498 CNS
SNB-19 CNS = tested on: SNB-19 CNS

Measured: TGI

O=Cc1c(O)ccc2ccc(O)c(-c3c(O)ccc4ccc(O)cc34)c12
95.1 µM: NCI-H226 lung
not listed: HCC-2998 colon | EKVX NSCLC | XF 498 CNS | SNB-19 CNS
> 100 µM: all other assays above

CCOP(=S)(OCC)Oc1ccc2c(c1)OC(=O)C1(Cl)C2(C)C2(Cl)C(=O)Oc3cc(OP(=S)(OCC)OCC)ccc3C12C (stereo unspecified)
26.6 µM: UACC-62 melanoma
22.3 µM: NCI-H522 lung
30.7 µM: KM12 colon
41.8 µM: CAKI-1 renal
21.1 µM: LXFL 529 NSCLC
38.7 µM: IGROV1 ovarian
55.5 µM: EKVX NSCLC
33.9 µM: M19-MEL melanoma | HCC-2998 colon
33.7 µM: M14 melanoma | UO-31 renal
44.9 µM: 786-0 renal
20 µM: U251 CNS
37.2 µM: OVCAR-8 ovarian | UACC-257 melanoma
29.7 µM: SF-295 CNS
43.4 µM: ACHN renal
33.3 µM: DLD-1 colon | SW-620 colon | OVCAR-5 ovarian
31.1 µM: NCI-H226 lung | SK-MEL-28 melanoma
52.8 µM: RPMI-8226 leukemia
61.8 µM: TK-10 renal
63.7 µM: A498 renal
49.4 µM: SNB-78 CNS
36.2 µM: XF 498 CNS
33.4 µM: KM20L2 colon
42.3 µM: SK-MEL-2 melanoma
15.6 µM: SNB-19 CNS
29.9 µM: HT29 colon
43.8 µM: MALME-3M melanoma
34.3 µM: COLO 205 colon | SNB-75 CNS
25 µM: HCT-116 colon
36.6 µM: NCI-H460 lung
30 µM: DMS 114 small cell lung
24.7 µM: SF-539 CNS
74.1 µM: A549 NSCLC
37.5 µM: LOX IMVI melanoma
38.1 µM: DMS 273 small cell lung
34.4 µM: HL-60(TB) leukemia
28.1 µM: OVCAR-3 ovarian
31.7 µM: SK-MEL-5 melanoma
24.4 µM: OVCAR-4 ovarian
41.6 µM: HCT-15 colon
66.6 µM: MOLT-4 leukemia
21 µM: SF-268 CNS
77.3 µM: K-562 leukemia
40.3 µM: HOP-62 NSCLC
39.3 µM: SN12C renal
25.8 µM: RXF 393 renal
41.1 µM: CCRF-CEM leukemia

CCCCC1CC(c2ccc(Cl)cc2)=NO1 (stereo unspecified)
not listed: KM20L2 colon | RXF 393 renal | LOX IMVI melanoma | XF 498 CNS
> 100 µM: all other assays above
